In patent US10844051B2, “Substituted oxazoles for the treatment of cancer” (THE ROYAL INSTITUTION FOR THE ADCANCEMENT OF …, priority 2015, dated 2020):
“Also recorded” adds a separate entry of the source. Blank lines part the entries; values can stand above or below the compound they belong to.

How the values were obtained:
human STING (hSTING) = molecular target: T1, human STING (hSTING) (Homo sapiens, UniProt Q86WV6); experiment: hSTING ISRE-luc reporter assay in 293T cells; format: cell-based; conditions: 24 hours
T1 construct: expressed in transfected cells; host or cells: 293T
T1 sequence (Q86WV6 whole entry H232R): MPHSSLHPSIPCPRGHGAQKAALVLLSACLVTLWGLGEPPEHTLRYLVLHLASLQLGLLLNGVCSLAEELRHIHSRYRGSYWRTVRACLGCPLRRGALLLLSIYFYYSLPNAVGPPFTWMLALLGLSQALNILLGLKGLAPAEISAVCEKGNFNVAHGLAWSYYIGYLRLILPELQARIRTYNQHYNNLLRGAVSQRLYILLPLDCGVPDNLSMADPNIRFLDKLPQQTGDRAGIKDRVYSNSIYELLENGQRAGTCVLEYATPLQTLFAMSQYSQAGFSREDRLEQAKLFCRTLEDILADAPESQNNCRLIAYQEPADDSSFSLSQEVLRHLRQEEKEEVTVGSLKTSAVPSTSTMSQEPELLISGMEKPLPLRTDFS
Protocol: ISRE-luc (reporter), pRL-TK (internal control) and hSTING-expressing plasmids were transiently transfected into 293T cells. Cells were exposed to DMSO vehicle control or compounds for 24 hours. Experiments were done in triplicate.

mouse STING (mSTING) = molecular target: T2, mouse STING (mSTING) (Mus musculus, UniProt Q3TBT3); experiment: mSTING ISRE-luc reporter assay in 293T cells; format: cell-based; conditions: 24 hours
T2 construct: expressed in transfected cells; host or cells: 293T
T2 sequence (Q3TBT3 1-378): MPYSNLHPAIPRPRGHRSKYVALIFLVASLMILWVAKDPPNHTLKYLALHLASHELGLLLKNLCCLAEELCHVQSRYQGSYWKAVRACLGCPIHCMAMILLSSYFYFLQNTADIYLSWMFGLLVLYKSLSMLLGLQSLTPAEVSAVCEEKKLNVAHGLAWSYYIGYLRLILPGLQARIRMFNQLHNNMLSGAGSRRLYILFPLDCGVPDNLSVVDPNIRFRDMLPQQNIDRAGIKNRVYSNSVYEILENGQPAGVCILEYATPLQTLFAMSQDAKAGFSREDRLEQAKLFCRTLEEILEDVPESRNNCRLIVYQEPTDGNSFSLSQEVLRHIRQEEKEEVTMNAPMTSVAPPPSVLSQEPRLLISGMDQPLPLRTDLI
Protocol: ISRE-luc (reporter), pRL-TK (internal control) and mSTING-expressing plasmids were transiently transfected into 293T cells. Cells were exposed to DMSO vehicle control or compounds for 24 hours. Experiments were done in triplicate.

[1] = molecular target: T3, recombinant protein of human GATA2 (Homo sapiens, UniProt P23769); experiment: SPR analysis on amine-coupled GATA2; format: binding; conditions: 50 μM each
T3 sequence (P23769 1-480): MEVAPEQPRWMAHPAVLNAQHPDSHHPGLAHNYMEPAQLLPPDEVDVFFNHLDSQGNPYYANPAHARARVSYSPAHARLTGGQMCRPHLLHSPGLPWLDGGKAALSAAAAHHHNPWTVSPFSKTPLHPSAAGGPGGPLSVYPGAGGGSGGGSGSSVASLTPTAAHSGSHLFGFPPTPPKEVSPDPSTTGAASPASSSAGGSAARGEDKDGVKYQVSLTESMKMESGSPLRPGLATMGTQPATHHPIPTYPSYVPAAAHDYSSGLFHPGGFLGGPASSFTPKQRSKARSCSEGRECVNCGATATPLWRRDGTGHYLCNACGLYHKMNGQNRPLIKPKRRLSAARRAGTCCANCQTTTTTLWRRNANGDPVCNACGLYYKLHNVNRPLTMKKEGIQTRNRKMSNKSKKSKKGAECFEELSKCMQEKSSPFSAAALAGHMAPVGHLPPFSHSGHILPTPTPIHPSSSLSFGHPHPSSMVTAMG
Text: In embodiments of the invention, the androgen-bound AR is regressing GATA2 expression and inhibition of AR via castration or use of antiandrogen releases such expression. […] Overexpression of GATA2 confers resistance to antiandrogen bicalutamide (Bic) (FIG. 2.9). Compound 673 is effective against the LNCaP stably transfected with GATA2-expressing plasmid (referred to as LNCaP-GATA2 cells) (FIG. 2.8).

ESE-1 = molecular target: T4, ESE-1 (Homo sapiens, UniProt P78545); experiment: ESE-1 dependent reporter assay in HEK293 cells; format: cell-based; conditions: 48 hours
T4 construct: expressed in transfected cells; host or cells: HEK293
T4 sequence (P78545 1-371): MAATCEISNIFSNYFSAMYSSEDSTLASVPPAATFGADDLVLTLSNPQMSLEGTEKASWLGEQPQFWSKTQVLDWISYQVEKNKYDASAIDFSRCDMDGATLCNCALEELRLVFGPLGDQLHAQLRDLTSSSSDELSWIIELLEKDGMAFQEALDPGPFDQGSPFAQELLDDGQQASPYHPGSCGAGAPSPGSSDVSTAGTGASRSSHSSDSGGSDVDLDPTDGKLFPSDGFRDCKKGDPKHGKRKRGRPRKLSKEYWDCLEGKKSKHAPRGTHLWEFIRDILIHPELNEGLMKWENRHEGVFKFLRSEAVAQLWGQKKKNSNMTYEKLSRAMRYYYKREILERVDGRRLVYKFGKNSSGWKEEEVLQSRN
Protocol: (§1) HEK293 cells were transiently transfected with empty vector (for the NT) or ERG-expressing plasmid as well as pRL-TK (internal control) and PUx3-Luc reporter. Cells were then exposed to DMSO vehicle or compounds at designated doses for 48 hours. Experiments were done in triplicate.
Experiments were done as described above in FIG. 1.1a) except that ERG plasmid was replaced by ESE-1 plasmid.

[2] = system: EZH2, c-Myc and ERG expression in VCaP cells; experiment: Expression of EZH2, c-Myc and ERG in VCaP cells; format: cell-based; conditions: 10 μM, 72 hours
Protocol: VCaP cells were exposed to DMSO vehicle control, 648, 698 and 891 at 10 μM for 72 hours in DMEM medium plus 10% FBS or phenol red-free DMEM medium plus 10% charcoal-stripped FBS (CS-FBS).

ERG = molecular target: T5, ERG (Homo sapiens, UniProt P11308); experiment: ERG-dependent reporter assay in HEK293 cells; format: cell-based; set-up: expressed in transfected cells; host or cells: HEK293; conditions: PUx3-Luc reporter, 48 hours, designated doses
T5 sequence (P11308 1-486 isoform P11308-3): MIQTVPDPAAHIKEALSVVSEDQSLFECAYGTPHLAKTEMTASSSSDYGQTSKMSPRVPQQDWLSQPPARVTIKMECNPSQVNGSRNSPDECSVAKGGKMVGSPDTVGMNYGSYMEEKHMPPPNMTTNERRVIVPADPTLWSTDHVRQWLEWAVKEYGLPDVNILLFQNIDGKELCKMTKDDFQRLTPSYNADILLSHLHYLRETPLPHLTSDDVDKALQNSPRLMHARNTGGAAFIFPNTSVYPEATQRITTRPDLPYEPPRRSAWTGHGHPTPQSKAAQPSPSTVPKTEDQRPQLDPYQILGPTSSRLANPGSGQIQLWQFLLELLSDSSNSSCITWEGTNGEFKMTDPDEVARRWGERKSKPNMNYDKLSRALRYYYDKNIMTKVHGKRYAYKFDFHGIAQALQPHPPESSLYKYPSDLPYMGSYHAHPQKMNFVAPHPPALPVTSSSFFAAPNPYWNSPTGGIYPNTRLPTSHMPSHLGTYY
Protocol: as §1

[3] = system: interferon signaling pathway in THP-1 cells; experiment: Western blot, interferon signaling in THP-1 cells; format: cell-based; conditions: 16 hours
Protocol: THP1 cells were treated for 16 hours with the indicated concentration (μM) of compounds or DMSO vehicle control. Whole-cell extracts were prepared and subjected to Western blot analysis with the antibodies as indicated.

human GATA2 = molecular target: T6, human GATA2 (Homo sapiens, UniProt P23769); experiment: GATA2-dependent reporter assay in IHH cells; format: cell-based; conditions: GATA-Luc reporter, 48 h
T6 construct: expressed in transfected cells; host or cells: IHH
T6 sequence (P23769 1-480): T3 sequence (P23769 1-480)
Protocol: K7174 is a known GATA2 inhibitor. The IHH cells were transiently transfected with empty vector (for the NT) or human GATA2-expressing plasmid as well as pRL-TK (internal control) and GATA-Luc reporter plasmids. Cells were exposed to DMSO vehicle or compounds for 48 h. Experiments were in triplicate.

human GATA3 = molecular target: T7, human GATA3 (Homo sapiens, UniProt P23771); experiment: GATA3-dependent reporter assay in IHH cells; format: cell-based; conditions: 48 hours, 10 μM
T7 construct: expressed in transfected cells; host or cells: IHH
T7 sequence (P23771 whole entry): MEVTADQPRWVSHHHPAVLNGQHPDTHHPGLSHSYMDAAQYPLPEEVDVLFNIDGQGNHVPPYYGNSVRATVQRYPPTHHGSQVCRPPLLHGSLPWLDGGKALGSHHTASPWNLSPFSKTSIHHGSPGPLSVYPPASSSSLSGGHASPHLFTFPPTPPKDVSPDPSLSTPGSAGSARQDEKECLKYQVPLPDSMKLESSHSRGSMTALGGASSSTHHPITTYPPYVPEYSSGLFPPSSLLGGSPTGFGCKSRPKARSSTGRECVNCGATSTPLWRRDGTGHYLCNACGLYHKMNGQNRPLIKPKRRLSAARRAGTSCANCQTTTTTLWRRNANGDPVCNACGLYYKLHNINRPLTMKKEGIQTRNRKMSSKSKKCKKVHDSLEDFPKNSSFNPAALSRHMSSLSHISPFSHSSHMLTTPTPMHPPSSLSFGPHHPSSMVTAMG
Protocol: The IHH cells were transiently transfected with empty vector (for the NT) or human GATA3-expressing plasmid as well as pRL-TK (internal control) and GATA-Luc reporter plasmids. Cells were exposed to DMSO vehicle or compounds for 48 hours. Experiments were done in triplicate.

[4] = molecular target: T8, recombinant human KRAS 12D mutant protein (Homo sapiens, UniProt P01116, G12D); experiment: SPR analysis on amine-coupled KRAS (G12D mutant); format: binding
T8 construct: purchased ORIGENE TP700052
T8 sequence (P01116 1-188 isoform P01116-2 G12D): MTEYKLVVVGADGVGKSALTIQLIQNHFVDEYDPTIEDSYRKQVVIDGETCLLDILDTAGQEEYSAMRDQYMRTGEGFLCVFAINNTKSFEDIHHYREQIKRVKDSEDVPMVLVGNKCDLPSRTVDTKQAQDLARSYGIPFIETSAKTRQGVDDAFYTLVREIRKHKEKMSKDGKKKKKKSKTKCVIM
Protocol: FIG. 4.1 SPR analysis. Left panels, SPR sensorgrams for compounds 784 and 895 binding to 3500 RU amine-coupled KRAS (G12D mutant) at 25 μL/min in PBS-T containing 1 μM GDP. Right panels, corresponding non-linear regression analyses of steady-state binding responses versus concentration to determine apparent equilibrium dissociation constants (KD).
Since activation of KRAS leads to activation of NF-kB,^69 we performed in vitro screening of our compounds by KRAS mutant-dependent NF-kB-luc reporter assay in HEK293 cells. […] Also, compounds of the invention are cytotoxic to PANC 10.05 pancreatic cancer cells, H23 NSCLC cells and HCT-116 colorectal cancer cells (FIG. 4.5).

[5] = system: phosphorylation of ERK in Panc 10.05 cells; experiment: Western blot, phosphorylation of ERK in Panc 10.05 cells; format: cell-based; conditions: designated doses, 24 hours
Protocol: (§2) C-PARP, cleaved PARP. Panc10.05 cells were exposed to DMSO vehicle or compounds at designated doses for 24 hours.
Panc10.05 cells were exposed to DMSO vehicle or compounds at designated doses for 24 hours.

Panc 10.05 cells = experiment: Western blot, apoptosis (cleaved PARP) in Panc 10.05 cells; format: cell-based; conditions: 24 hours
Protocol: as §2

activation of hSTING in ISRE-luc reporter assay (human STING (hSTING)): activate human STING (hSTING) | activation of mSTING in ISRE-luc reporter assay (mouse STING (mSTING)): activate mouse STING (mSTING)
Structure (SMILES): COc1cccc(-c2nc(CCCc3c[nH]c4ccccc34)oc2-c2cccc(OC)c2)c1 [Compound 640]

activation of hSTING in ISRE-luc reporter assay (human STING (hSTING)): activate human STING (hSTING)
Structure (SMILES): COc1ccc(-c2nc(CCCc3c[nH]c4ccccc34)oc2-c2ccc(OC)cc2)cc1 [Compound 670]
binding to amine-coupled GATA2 (SPR) [1]: Direct binding; also recorded: Specific binding

activation of hSTING in ISRE-luc reporter assay (human STING (hSTING)): activate human STING (hSTING) | activation of mSTING in ISRE-luc reporter assay (mouse STING (mSTING)): activate mouse STING (mSTING)
Structure (SMILES): FC(F)(F)c1ccc(-c2nc(CCCc3c[nH]c4ccccc34)oc2-c2ccc(C(F)(F)F)cc2)cc1 [Compound 672]

activation of hSTING in ISRE-luc reporter assay (human STING (hSTING)): activate human STING (hSTING) | activation of mSTING in ISRE-luc reporter assay (mouse STING (mSTING)): activate mouse STING (mSTING)
Structure (SMILES): FC(F)(F)c1cccc(-c2nc(CCCc3c[nH]c4ccccc34)oc2-c2cccc(C(F)(F)F)c2)c1 [Compound 681]

ESE-1 inhibition in ESE-1 dependent reporter assay (ESE-1): ESE-1 inhibitors | activation of hSTING in ISRE-luc reporter assay (human STING (hSTING)): activate hSTING | ERG inhibition in ERG-dependent reporter assay (ERG): ERG inhibitors
Structure (SMILES): Oc1ccc(-c2nc(Cc3c[nH]c4ccccc34)oc2-c2ccc(O)cc2)cc1 [Compound 698]
inhibition of expression of EZH2, c-Myc and ERG [2]: inhibit expression of EZH2, c-Myc and ERG

activation of hSTING in ISRE-luc reporter assay (human STING (hSTING)): activate human STING (hSTING) | activation of mSTING in ISRE-luc reporter assay (mouse STING (mSTING)): activate mouse STING (mSTING)
Structure (SMILES): Fc1cccc(-c2nc(CCc3c[nH]c4ccccc34)oc2-c2cccc(F)c2)c1 [Compound 761]
activation of interferon signaling pathway (Western blot) [3]: activate interferon signaling pathway

GATA2 inhibition in GATA2-dependent reporter assay (human GATA2): GATA2 inhibitors | activity against GATA3 in GATA3-dependent reporter assay (human GATA3): inactive against GATA3 | direct binding with KRAS G12D mutant (SPR) [4]: Direct binding | Kd ([4]; PBS-T containing 1 μM GDP, steady-state): 190 µM
Structure (SMILES): O=C(Cc1c[nH]c2ccccc12)NCc1nc(-c2ccccc2)c(-c2ccccc2)o1 [Compound 784]
suppression of phosphorylation of ERK (Western blot) [5]: dose-dependently suppressed phosphorylation of ERK | induction of apoptosis (cleaved PARP, Western blot) (Panc 10.05 cells): induced apoptosis
